{"source": "patent US9216183B2", "about": "“Topical treatment for chemotherapy induced eyelash loss or hypotrichosis using prostamide F2 alpha agonists” (ALLERGAN, INC., priority 2002, dated 2015)", "system": "eyelashes of subjects with idiopathic hypotrichosis", "test": "GEA / ESQ Domain 2 responder analysis, 1-year clinical study, idiopathic hypotrichosis", "assay_type": "in vivo, human", "source_text": "A one-year, multicenter, randomized, double-masked, vehicle-controlled study. Adult post-chemotherapy and idiopathic eyelash hypotrichosis subjects were enrolled based on their score of 1 or 2 on a four point ordinal Global Eyelash Assessment (GEA) scale, and in addition having a low score on a PRO measure associated with 'psychological impact' of the condition, a domain-2 of the Eyelash Satisfaction Questionnaire (ESQ). The study involved two treatment periods of six months each. In the first treatment period, subjects for both populations were randomized 3:1 for QD bimatoprost: vehicle treatment. In the second 6-month treatment period, all subjects were moved to bimatoprost treatment, except for a group of bimatoprost treated idiopathic hypotrichosis subjects (n=55) who were switched to vehicle to investigate the effect of drug discontinuation. The study included 9 visits over the 12-month treatment period. The primary end point was the proportion of responders within each treatment group based on a composite measure of GEA and ESQ Domain-2 (investigator assessed eyelash prominence and subject's assessment of 'psychological impact' related to eyelashes) at month-4. This multicenter, double-masked, randomized, parallel-group study included two 6-month treatment periods. Subjects with idiopathic hypotrichosis were randomized to 3 treatment groups: 1) treatment period 1 (TP1) and TP2: bimatoprost; 2) TP1: bimatoprost; TP2: vehicle; and 3) TP1: vehicle; TP2: bimatoprost. Subjects with chemotherapy-induced hypotrichosis were randomized to 2 treatment groups: 1) TP1: bimatoprost or vehicle; and 2) TP2: bimatoprost. The primary endpoint was a composite of at least a 1-grade improvement in investigator-assessed Global Eyelash Assessment (GEA), and at least a 3-point improvement in subject-reported Eyelash Satisfaction Questionnaire (ESQ) Domain 2 (self-perceived confidence, attractiveness, and professionalism) at month 4. Secondary measures included digitally assessed eyelash characteristics (i.e., eyelash length, fullness, and darkness). Idiopathic hypotrichosis subjects were randomized to 3 treatment arms in a 2:1:1 ratio: bimatoprost during both treatment periods; vehicle in TP1 and bimatoprost in TP2; and bimatoprost in TP1 and vehicle in TP2. Chemotherapy-induced hypotrichosis subjects were randomized in a 3:1 ratio to receive bimatoprost during both treatment periods or vehicle in TP1 followed by bimatoprost in TP2. Male or female subjects at least 18 years of age who met these criteria were eligible for inclusion in the study: a score of 1 or 2 on the clinician-graded global eyelash assessment (“GEA”); a score of 1 (very much disagree) or 2 (disagree) on each of 3 items (16 [confidence], 19 [attractiveness], and 18 [professionalism]) on the subject-assessed eyelash satisfaction questionnaire (“esq”); best-corrected visual acuity (“bcva”) score equivalent to a […] acuity of 20/100 or better in each eye; and intraocular pressure (“iop”) 20 mm hg or less in each eye. Subjects in the chemotherapy-induced hypotrichosis population also met the following inclusion criteria: inadequate eyelashes after completing chemotherapy; treatment for solid tumor type stage 1, 2, or 3a cancer; last chemotherapy treatment at least 4 to less than 16 weeks prior to baseline; and considered free of cancer. Key exclusion criteria included subjects with any eye disease or abnormality or a history of eye surgery. Subjects placed 1 drop of study treatment (i.e., bimatoprost 0.03% or vehicle) onto a sterile single-use-per eye applicator and applied it to the upper eyelid margin of 1 eye; a second applicator was used for the contralateral eye. Treatment was applied once daily in the evening throughout the study. […]", "key": {"[1]": {"conditions": "Bim/Veh group (n = 60), Month 1 (on bimatoprost)"}, "[2]": {"conditions": "Bim/Veh group (n = 60), Month 2 (on bimatoprost)"}, "[3]": {"conditions": "Bim/Veh group (n = 60), Month 4 (on bimatoprost)"}, "[4]": {"conditions": "Bim/Veh group (n = 60), Month 6 (on bimatoprost)"}, "[5]": {"conditions": "Bim/Veh group (n = 60), Month 7 (vehicle since month 6)"}, "[6]": {"conditions": "Bim/Veh group (n = 60), Month 8 (vehicle since month 6)"}, "[7]": {"conditions": "Bim/Veh group (n = 60), Month 10 (vehicle since month 6)"}, "[8]": {"conditions": "Bim/Veh group (n = 60), Month 12 (vehicle since month 6)"}, "[9]": {"conditions": "Month 4, all bimatoprost TP1 (n = 179)"}, "[10]": {"conditions": "Month 6, all bimatoprost TP1 (n = 179)"}}, "note": "Where “and” joins values, the source holds several entries; their conditions need not be identical. Equal entries are not always repeated.", "data": [{"molecule": "CCNC(=O)CCC/C=C\\C[C@@H]1[C@@H](/C=C/[C@@H](O)CCc2ccccc2)[C@H](O)C[C@@H]1O", "note": "[Bim 0.03%, bimatoprost]", "values": [{"measurement": "Primary composite endpoint responders (≧1-grade GEA and ≧3-point ESQ Domain 2 improvement)", "setting": "[1]", "value": 0.0, "unit": "%"}, {"measurement": "≧1-Grade Improvement From Baseline GEA Score", "setting": "[1]", "value": 10.0, "unit": "%"}, {"measurement": "≧2-Grade Improvement From Baseline GEA Score", "setting": "[1]", "value": 0.0, "unit": "%"}, {"measurement": "≧3-Point Improvement From Baseline ESQ Domain 2 Score", "setting": "[1]", "value": 13.3, "unit": "%"}, {"measurement": "Primary composite endpoint responders (≧1-grade GEA and ≧3-point ESQ Domain 2 improvement)", "setting": "[2]", "value": 13.3, "unit": "%"}, {"measurement": "≧1-Grade Improvement From Baseline GEA Score", "setting": "[2]", "value": 40.0, "unit": "%"}, {"measurement": "≧2-Grade Improvement From Baseline GEA Score", "setting": "[2]", "value": 3.3, "unit": "%"}, {"measurement": "≧3-Point Improvement From Baseline ESQ Domain 2 Score", "setting": "[2]", "value": 25.0, "unit": "%"}, {"measurement": "Primary composite endpoint responders (≧1-grade GEA and ≧3-point ESQ Domain 2 improvement)", "setting": "[3]", "value": 41.7, "unit": "%"}, {"measurement": "≧1-Grade Improvement From Baseline GEA Score", "setting": "[3]", "value": 71.7, "unit": "%"}, {"measurement": "≧2-Grade Improvement From Baseline GEA Score", "setting": "[3]", "value": 25.0, "unit": "%"}, {"measurement": "≧3-Point Improvement From Baseline ESQ Domain 2 Score", "setting": "[3]", "value": 48.3, "unit": "%"}, {"measurement": "Primary composite endpoint responders (≧1-grade GEA and ≧3-point ESQ Domain 2 improvement)", "setting": "[4]", "value": 48.3, "unit": "%"}, {"measurement": "≧1-Grade Improvement From Baseline GEA Score", "setting": "[4]", "value": 76.7, "unit": "%"}, {"measurement": "≧2-Grade Improvement From Baseline GEA Score", "setting": "[4]", "value": 30.0, "unit": "%"}, {"measurement": "≧3-Point Improvement From Baseline ESQ Domain 2 Score", "setting": "[4]", "value": 56.7, "unit": "%"}, {"measurement": "Primary composite endpoint responders (≧1-grade GEA and ≧3-point ESQ Domain 2 improvement)", "setting": "[5]", "value": 51.7, "unit": "%"}, {"measurement": "≧1-Grade Improvement From Baseline GEA Score", "setting": "[5]", "value": 78.3, "unit": "%"}, {"measurement": "≧2-Grade Improvement From Baseline GEA Score", "setting": "[5]", "value": 30.0, "unit": "%"}, {"measurement": "≧3-Point Improvement From Baseline ESQ Domain 2 Score", "setting": "[5]", "value": 56.7, "unit": "%"}, {"measurement": "Primary composite endpoint responders (≧1-grade GEA and ≧3-point ESQ Domain 2 improvement)", "setting": "[6]", "value": 50.0, "unit": "%"}, {"measurement": "≧1-Grade Improvement From Baseline GEA Score", "setting": "[6]", "value": 78.3, "unit": "%"}, {"measurement": "≧2-Grade Improvement From Baseline GEA Score", "setting": "[6]", "value": 28.3, "unit": "%"}, {"measurement": "≧3-Point Improvement From Baseline ESQ Domain 2 Score", "setting": "[6]", "value": 55.0, "unit": "%"}, {"measurement": "Primary composite endpoint responders (≧1-grade GEA and ≧3-point ESQ Domain 2 improvement)", "setting": "[7]", "value": 20.0, "unit": "%"}, {"measurement": "≧1-Grade Improvement From Baseline GEA Score", "setting": "[7]", "value": 46.7, "unit": "%"}, {"measurement": "≧2-Grade Improvement From Baseline GEA Score", "setting": "[7]", "value": 8.3, "unit": "%"}, {"measurement": "≧3-Point Improvement From Baseline ESQ Domain 2 Score", "setting": "[7]", "value": 43.3, "unit": "%"}, {"measurement": "Primary composite endpoint responders (≧1-grade GEA and ≧3-point ESQ Domain 2 improvement)", "setting": "[8]", "value": 11.7, "unit": "%"}, {"measurement": "≧1-Grade Improvement From Baseline GEA Score", "setting": "[8]", "value": 35.0, "unit": "%"}, {"measurement": "≧2-Grade Improvement From Baseline GEA Score", "setting": "[8]", "value": 5.0, "unit": "%"}, {"measurement": "≧3-Point Improvement From Baseline ESQ Domain 2 Score", "setting": "[8]", "value": 38.3, "unit": "%"}, {"measurement": "Primary composite endpoint responders (≧1-grade GEA and ≧3-point ESQ Domain 2 improvement)", "setting": "[9]", "value": 40.2, "unit": "%"}, {"measurement": "Responders with ≧1-grade increase in GEA score", "setting": "[9]", "value": 74.3, "unit": "%"}, {"measurement": "Responders with ≧2-grade increase in GEA score", "setting": "[9]", "value": 25.7, "unit": "%"}, {"measurement": "Responders with ≧3-point increase in ESQ Domain 2", "setting": "[9]", "value": 47.5, "unit": "%"}, {"measurement": "Responders with ≧1-grade increase in GEA score", "setting": "Month 4, all bimatoprost TP1 (n = 179), listed as Bimatoprost", "value": 74.3, "unit": "%"}, {"measurement": "Responders with ≧1-grade increase in GEA score", "setting": "Month 4, all bimatoprost TP1 (n = 179), listed as bimatoprost", "value": "74.3% and > 70%"}, {"measurement": "Primary composite endpoint responders (≧1-grade GEA and ≧3-point ESQ Domain 2 improvement)", "setting": "[10]", "value": 47.5, "unit": "%"}, {"measurement": "Responders with ≧1-grade increase in GEA score", "setting": "[10]", "value": 77.7, "unit": "%"}, {"measurement": "Responders with ≧2-grade increase in GEA score", "setting": "[10]", "value": 30.7, "unit": "%"}, {"measurement": "Responders with ≧3-point increase in ESQ Domain 2", "setting": "[10]", "value": 55.9, "unit": "%"}, {"measurement": "Time efficacy was maintained after drug discontinuation", "setting": "bimatoprost 6 months then vehicle", "value": "about 2 months"}]}]}
